Test results as given in patent US7015309B1 (The Wistar Institute of Anatomy and Biology, priority 1999, dated 2006).
Where two headings read alike, the source gives them in different places. Non-standard residues stand in square brackets, D forms with d. Residues, ends and D or L forms follow the SMILES beside them. *: point of attachment. 5FAM = O=C1OC2(c3ccc(O)cc3Oc3cc(O)ccc32)c2ccc(C(=O)*)cc21; Biotin = O=C1N[C@H]2[C@H](CS[C@H]2CCCCC(=O)*)N1; Ac6c = NC1(C(=O)O)CCCCC1

Columns and labels:
Bacillus megaterium = tested on: Bacillus megaterium
Description: (§1) Growth inhibition assays were performed using the peptides of Example 1 and the Gram positive microorganisms Micrococcus luteus and Bacillus megaterium, and the Gram negative microorganisms, Escherichia coli D22, Agrobacterium tumefaciens, and Salmonella typhimurium. Anti-bacterial assays were performed in sterilized 96-well plates (Nunc F96 microtiter plates) with a final volume of 100 μl as described in Bulet (1996), cited above. Briefly, 90 μl of a suspension of a midlogarithmic phase bacterial culture at an initial 600 nm UV absorbence of 0.001 in Luria-Bertani rich nutrient medium was added to 10 μl of serially diluted peptides in sterilized water. The final peptide concentrations ranged between 0.15 and 80 μM. The plates were incubated at 30° C. for 24 hours with gentle shaking, and the growth inhibition was measured by recording the increase of the UV absorbence at 600 nm on an SLT Labinstruments 400 ATC microplate reader. The experiments were conducted over a 7-month period.

Micrococcus luteus = conditions: 24 h
Description: as §1

[1] = tested on: Agrobacterium tumefaciens; conditions: 24 h
Description: as §1

Salmonella typhimurium = conditions: murium, 24 h
Description: as §1

[2] = read-out: IC50 in μM against Bacillus megaterium, 30° C., 24 hours, for Peptide 22 original assay (a)

| Compound | IC50 (Bacillus megaterium; [2]) [µM] | IC50 (Micrococcus luteus) [µM] | IC50 (Bacillus megaterium; Bacillus, 24 h) [µM] | IC50 [1] [µM] | IC50 (Salmonella typhimurium) [µM] |
| --- | --- | --- | --- | --- | --- |
| CC[C@H](C)[C@H](NC(=O)[C@@H]1CCCN1C(=O)[C@H](CCCNC(=N)N)NC(=O)[C@@H]1CCCN1C(=O)[C@@H]1CCCN1C(=O)[C@@H](NC(=O)[C@@H]1CCCN1C(=O)[C@H](CCCNC(=N)N)NC(=O)[C@@H]1CCCN1C(=O)[C@H](CC(C)C)NC(=O)[C@H](Cc1ccc(O)cc1)NC(=O)[C@H](CO)NC(=O)CNC(=O)[C@H](CCCCN)NC(=O)[C@H](CC(=O)O)NC(=O)[C@@H](NC(=O)[C@H](CCCCN)NC(=O)c1ccc2c(c1)C(=O)OC21c2ccc(O)cc2Oc2cc(O)ccc21)C(C)C)[C@@H](C)O)C(=O)N[C@@H](Cc1ccc(O)cc1)C(=O)N[C@@H](CC(N)=O)C(=O)N[C@@H](CCCNC(=N)N)C(=O)N[C@@H](CC(N)=O)C(N)=O [Peptide 19] (5FAM-KVDKGSYLPRPTPPRPIYNRN-NH2) | > 80 |  |  |  |  |
| CC[C@H](C)[C@H](NC(=O)[C@@H]1CCCN1C(=O)[C@H](CCCNC(=N)N)NC(=O)[C@@H]1CCCN1C(=O)[C@@H]1CCCN1C(=O)[C@@H](NC(=O)[C@@H]1CCCN1C(=O)[C@H](CCCNC(=N)N)NC(=O)[C@@H]1CCCN1C(=O)[C@H](CC(C)C)NC(=O)[C@H](Cc1ccc(O)cc1)NC(=O)[C@H](CO)NC(=O)CNC(=O)[C@H](CCCCN)NC(=O)[C@H](CC(=O)O)NC(=O)C1(N)CCCCC1)[C@@H](C)O)C(=O)N[C@@H](Cc1ccc(O)cc1)C(=O)N[C@@H](CC(N)=O)C(=O)N[C@@H](CCCNC(=N)N)C(=O)N[C@@H](CC(N)=O)C(N)=O [Peptide 6] (H-[Ac6c]DKGSYLPRPTPPRPIYNRN-NH2; N-terminus and C-terminus assumed) |  | 5 | 10 | 1.25 | 2.5 |
| CC[C@H](C)[C@H](NC(=O)[C@@H]1CCCN1C(=O)[C@H](CCCNC(=N)N)NC(=O)[C@@H]1CCCN1C(=O)[C@@H]1CCCN1C(=O)[C@@H](NC(=O)[C@@H]1CCCN1C(=O)[C@H](CCCNC(=N)N)NC(=O)[C@@H]1CCCN1C(=O)[C@H](CC(C)C)NC(=O)[C@H](Cc1ccc(O)cc1)NC(=O)[C@H](CO)NC(=O)CNC(=O)[C@H](CCCCN)NC(=O)[C@H](CC(=O)O)NC(=O)[C@H](N)C(C)C)[C@@H](C)O)C(=O)N[C@@H](Cc1ccc(O)cc1)C(=O)N[C@@H](CC(N)=O)C(=O)N[C@@H](CCCNC(=N)N)C(=O)N[C@H](CC(N)=O)C(N)=O [Peptide 12] (H-[dV]DKGSYLPRPTPPRPIYNR[dN]-NH2; N-terminus and C-terminus assumed) | > 80 | 10 |  | 2.5 | 5 |
| Ac-RVDKGSYLPRPTPPRPIYNRN-NH2 (C-terminus assumed) [Peptide 4] | > 80 | 5 |  | 2.5 | 2.5 |
| CC[C@H](C)[C@H](NC(=O)[C@@H]1CCCN1C(=O)[C@H](CCCNC(=N)N)NC(=O)[C@@H]1CCCN1C(=O)[C@@H]1CCCN1C(=O)[C@@H](NC(=O)[C@@H]1CCCN1C(=O)[C@H](CCCNC(=N)N)NC(=O)[C@@H]1CCCN1C(=O)[C@H](CC(C)C)NC(=O)[C@H](Cc1ccc(O)cc1)NC(=O)[C@H](CO)NC(=O)CNC(=O)[C@H](CCCCN)NC(=O)[C@H](CC(=O)O)NC(=O)[C@@H](NC(=O)[C@H](CCCCN)NC(=O)CCCC[C@@H]1SC[C@@H]2NC(=O)N[C@@H]21)C(C)C)[C@@H](C)O)C(=O)N[C@@H](Cc1ccc(O)cc1)C(=O)N[C@@H](CC(N)=O)C(=O)N[C@@H](CCCNC(=N)N)C(=O)N[C@@H](CC(N)=O)C(N)=O [Peptide 18] (Biotin-KVDKGSYLPRPTPPRPIYNRN-NH2) | > 80 |  |  |  |  |
